Test results: patent publication US7393812B2, “Methylidene mevalonates and their use as herbicides” (Dow AgroSciences LLC, priority 2004, dated 2008)

Legend:
[1] = system: crabgrass (Digitaria sanguinalis, DIGSA); experiment: Post-emergent evaluation; assay type: in vivo; conditions: after 2 weeks
Method: (§1) Seeds of the desired test plant species were planted in Grace-Sierra MetroMix® 306 planting mixture, which typically has a pH of 6.0 to 6.8 and an organic matter content of about 30 percent, in plastic pots with a surface area of 64 square centimeters. When required to ensure good germination and healthy plants, a fungicide treatment and/or other chemical or physical treatment was applied. The plants were grown for 7-21 days in a greenhouse with an approximate 15 hr photoperiod which was maintained at about 23-29° C. during the day and 22-28° C. during the night. Nutrients and water were added on a regular basis and supplemental lighting was provided with overhead metal halide 1000-Watt lamps as necessary. The plants were employed for testing when they reached the first or second true leaf stage.
(§2) A weighed amount, determined by the highest rate to be tested, of each test compound was placed in a 20 mL glass vial and was dissolved in 4 mL of a 97:3 v/v (volume/volume) mixture of acetone and dimethyl sulfoxide (DMSO) to obtain concentrated stock solutions. […] The concentrated stock solutions obtained were diluted with an aqueous mixture containing acetone, water, isopropyl alcohol, DMSO, Atplus 411F crop oil concentrate, and Triton X-155 surfactant in a 48.5:39:10:1.5:1.0:0.02 v/v ratio to obtain spray solutions of known concentration. The solutions containing the highest concentration to be tested were prepared by diluting 2 mL aliquots of the stock solution with 13 mL of the mixture and lower concentrations were prepared by serial dilution of the stock solution. Approximately 1.5 mL aliquots of each solution of known concentration were sprayed evenly onto each of the test plant pots using a DeVilbiss atomizer driven by compressed air pressure of 2 to 4 psi ([…]) to obtain thorough coverage of each plant. Control plants were sprayed in the same manner with the aqueous mixture. In this test an application rate of 1 ppm results in the application of approximately 1 g/Ha.
(§3) The treated plants and control plants were placed in a greenhouse as described above and watered by sub-irrigation to prevent wash-off of the test compounds. After 2 weeks the condition of the test plants as compared with that of the untreated plants was determined visually and scored on a scale of 0 to 100 percent where 0 corresponds to no injury and 100 corresponds to complete kill. Species abbreviations as described for Table I with the following additions: soybean (Glycine max, GLXMA), rape (Brassica napus, BRSNN), chickweed (Stellaria media, STEME), cocklebur (Xanthium strumarium XANST), lambsquarters (Chenopodium album, CHEAL), violet (Viola tricolor, VIOTR), bindweed (Polygonum convolvulus, POLCO), spurge (Euphorbia heterophylla, EPHHL), Canada thistle (Cirsium arvense, CIRAR), corn (Zea mays, ZEAMX), rice (Oryza sativa, ORYSA), wheat (Triticum aestivum, TRZAS), crabgrass (Digitaria sanguinalis, DIGSA), shattercane (Sorghum vulgare, SORVU) and yellow nutsedge (Cyperus esculentus, CYPES).
(§4) By applying the well-accepted probit analysis as described by J. Berkson in Journal of the American Statistical […], 48, 565 (1953) and by D. Finney in “Probit Analysis” Cambridge University Press (1952), similar data can be used to calculate GR80 values, which are defined as growth reduction factors that correspond to the effective dose of herbicide required to kill or control 80 percent of a target plant. Species abbreviations are as previously defined.

[2] = system: yellow nutsedge (Cyperus esculentus, CYPES); experiment: Post-emergent evaluation; assay type: in vivo; conditions: after 2 weeks
Method: as §1, §2, §3, §4

C=C(CO)C(C)(O)CC(=O)O (stereo not shown) [methylidene mevalonate, 3-hydroxy-4-(hydroxymethyl)-3-methylpent-4-enoic acid]
Postemergent % Control ([1]; spray concentration 125 ppm): 0%
Postemergent % Control ([1]; spray concentration 250 ppm): 10%
Postemergent % Control ([1]; spray concentration 500 ppm): 50%
Postemergent % Control ([1]; spray concentration 1000 ppm): 70%
Postemergent % Control ([1]; spray concentration 2000 ppm): 80%
Postemergent % Control ([2]; spray concentration 125 ppm): 30%
Postemergent % Control ([2]; spray concentration 250 ppm): 70%
Postemergent % Control ([2]; spray concentration 500 ppm): 90%
Postemergent % Control ([2]; spray concentration 1000 ppm): 95%
Postemergent % Control ([2]; spray concentration 2000 ppm): 95%
